Measured values published in US9642835B2, “Modulators of GTPase and use in relevant treatment” (STC.UNM, priority 2010, dated 2017).

Legend:
[1] = test system: Cdc42, Rab2, Rab7, activated Rac1Q61L, Rac1, and H-Ras; test: Multiplexed primary screen, fluorescent GTP binding; settings: 10 μM compound
Protocol: Multiplex screening was performed by measuring GTP-binding activities of six GTPases (Cdc42, Rab2, Rab7, activated Rac1Q61L, Rac1, and H-Ras) simultaneously using special glutathione (GSH) bead sets having varied fluorescence intensities at a fixed wavelength^38. Individual GST-GTPase chimeras were tested against approximately 200,000 small molecules from the Molecular Libraries Small Molecule Repository (MLSMR). Results of fluorescent GTP-binding from the entire primary screen are summarized in the open access Pubchem database as required for projects conducted under the Roadmap Initiative (AID 757-761, 764). […] In total 1877 compounds/194,635 were identified as activators or inhibitors in the primary screen. On the order of 100-500 compounds were found active per GTPase target, enabling an unprecedented, comprehensive evaluation of small molecules active against various Ras-related GTPase family members. Here we report one compound active specifically on Cdc42 and structure activity relationships determined through chemical synthesis.
Multiplex analysis of small GTPases, were performed as we have described previously {Surviladze, 2009}. […] Flow cytometric light scatter and fluorescence emission at 530+/−20 nm (FL1) and 665+/−10 nm (FL8) were collected on a Cyan ADP flow cytometer (Beckman Coulter, Fullerton, Calif.). The resulting time-dependent data (one file per plate) were analyzed using IDLQuery software to determine the compound activity in each well. […] Gating based on FL8 emission distinguishes the beads coated with different proteins, and the median fluorescence per bead population was calculated. […]
For detection of GTP binding to small G-proteins we used bead-based multiplex flow cytometry assay {Surviladze, 2009}. […] Six individual GST-GTPases representative of Rho, Ras and Rab branches of the Ras-related GTPase family (Cdc42 wt, Rac1 wt, Rac1Q61L, Rab2 wt, Rab7 wt, and H-Ras wt) were first bound to GSH-beads of a particular fluorescence intensity. […]

wild-type Cdc42 = target: T1, wild-type Cdc42 (Homo sapiens, UniProt P60953); test: Equilibrium binding assay of BODIPY-FL-GTP; settings: 1.5 nM substrate, 1 mM MgCl2; read-out: IC50, inhibition of fluorescent GTP binding to Cdc42 wt
T1 construct: purchased Cytoskeleton
T1 sequence (P60953 whole entry): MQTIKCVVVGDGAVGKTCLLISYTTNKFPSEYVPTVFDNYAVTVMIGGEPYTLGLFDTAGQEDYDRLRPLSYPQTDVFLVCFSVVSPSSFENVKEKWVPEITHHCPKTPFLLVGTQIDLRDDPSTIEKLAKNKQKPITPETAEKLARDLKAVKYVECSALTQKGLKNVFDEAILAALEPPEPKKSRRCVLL
Protocol: Changes in GTP binding affinity (Kd) and Bmax in the presence of a given compound were measured in multiplex (Cdc42, Cdc42Q61L, Rab2, Rab7, H-Ras and H-RasG12V) and single-plex formats (Rac1, Rac1Q61L and GST-GFP). GTPases and the GST-GFP control were individually bound to glutathione beads overnight at 4° C., washed with HPSE buffer, then resuspended together or assayed individually in the same buffer containing DTT and BSA. Bound GTPases were analyzed by mixing 5 μl protein-bound beads with 2.5-100 nM BODIPY-GTP in a total volume of 10 μl and incubating with rotation at 4° C. for 90 min. DMSO controls and samples treated with 10 μM of each test compound were run in parallel. Bound fluorescent nucleotide was measured using a Cyan ADP flow cytometer. Data were converted to ASCII format using IDLeQuery, exported and analyzed using Prism (GraphPad Software, Inc., San Diego, Calif.) non-linear, one-site binding.
Wild-type GST-Cdc42 (4 μM) was bound to GSH-beads overnight at 4° C. Cdc42 on GSH-beads was depleted of nucleotide by incubating with 10 mM EDTA containing buffer for 20 min at 30° C., washing twice with NP-HPS buffer, then re-suspended in the same buffer containing 1 mM EDTA/or 1 mM MgCl2, 1 mM DTT and 0.1% BSA. […] Samples incubated at 4° C. for 45 min and binding of fluorescent nucleotide to enzyme measured using an Accuri flow cytometer. […]

Cdc42 WT = target: T2, Cdc42 WT (Homo sapiens, UniProt P60953); test: Bead-based flow cytometry dose response, BODIPY-FL-GTP binding; settings: Table 6, R3 analogs; for EC50: read-out: Cdc42 WT EC50; for Emax: read-out: Cdc42 WT Efficacy
T2 construct: purchased Cytoskeleton
T2 sequence (P60953 whole entry): as above
Protocol: (§1) Bead sets for multiplex assays were custom synthesized by Duke Scientific Corp (Fremont, Calif.), but may now be ordered from Thermo/Fisher. […] Negative controls, contained the bead mixture with fluorescent GTP, 0.5 mM unlabeled GTP as a competitor, and 1% DMSO. […] The resulting time-dependent data (one file per plate) were analyzed using IDLQuery software to determine the compound activity in each well. Gating based on forward scatter (FS) and side scatter (SS) parameters was used to identify singlet bead populations. Gating based on FL8 emission distinguishes the beads coated with different proteins, and the median fluorescence per bead population was calculated. […] Baselines were set to 100% based on measurements from the 1% DMSO containing positive controls as further described in PubChem. {PubChem #72}
(§2) Briefly, compounds were serially diluted 1:3 a total of eight times from a starting concentration of 10 mM giving a 9-point dilution series in DMSO. The final concentrations of inhibitors in the assay ranged from 10 nM to 100 μM. Dose-response analyses were examined in the presence of NP-HPS buffer containing: a) 1 mM EDTA; or b) 1 mM MgCl2. […] For assays with EDTA we used one multiplex (Rab7 wt, Rab2 wt, H-Ras wt, H-RasG12V, Cdc42 wt, and Cdc42Q61L) and 3 single-plexes (for Rac1 wt, Rac1 Q61L and GST-GFP).
(§3) GTPase activators were identified on the basis of an increase in fluorescent GTP-binding.
(§4) In experiments including magnesium, six GST-GTPases were assayed simultaneously in a single multiplex (Rac1 wt, Rac1Q61L, RhoA wt, RhoAL63, Cdc42 wt and Cdc42Q61L) and 1 nM BODIPY-FL-GTP binding was measured in the presence or absence of the serial drug dilution series. Each dose response series was run in duplicate.

Cdc42 ACT (Cdc42Q61L) = Cdc42 ACT (Cdc42Q61L) (Homo sapiens, UniProt P60953, Q61L); test: as above; settings: Table 6, R3 analogs; read-out: Cdc42 ACT EC50
Cdc42 ACT (Cdc42Q61L), sequence (P60953 whole entry Q61L): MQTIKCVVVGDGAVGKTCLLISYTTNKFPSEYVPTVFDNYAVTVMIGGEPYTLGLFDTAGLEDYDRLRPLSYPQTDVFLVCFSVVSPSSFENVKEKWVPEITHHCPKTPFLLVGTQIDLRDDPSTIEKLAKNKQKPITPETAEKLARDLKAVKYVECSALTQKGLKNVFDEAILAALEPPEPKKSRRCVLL
Protocol: as §1, §2, §3, §4

[2] = target: T3, Cdc42 GTPase in Swiss 3T3 cells (Mus musculus, UniProt P60766); test: GLISA; format: cell-based; settings: approximately 10 μM
T3 construct: endogenous in cells; host or cells: Swiss 3T3 cells
T3 sequence (P60766 whole entry): as the sequence (P60953 whole entry) above
Protocol: Swiss 3T3 cells were continuously passaged at subconfluence and used to monitor the capacity of compounds to block stimulus-mediated activation of Cdc42, Rac1 or RhoA in vivo. Commercial GLISA kits customized to capture activated Cdc42, Rac1 or Rho from cell lysates were used per manufacturer's instructions (Cytoskeleton, Inc.). Cells were serum starved by sequentially removing serum over a three day period and treated with DMSO or 10 μM compound in DMSO for 20-30 min. Subsequently samples were treated with EGF (10 ng/ml for Rac1 and 100 ng/ml for Cdc42) for 2 min to activate Rac1 and Cdc42 or 5 U/ml calpeptin for 10 min to activate RhoA. DMSO treated cells were left unstimulated to determine baseline GTPase activation or stimulated without drug treatment to determine maximal GTPase activation. Cell lysates were snap frozen, active Cdc42 and Rac1 were quantified based on a PAK binding assay, active RhoA was quantified based on Rho GTP-binding protein interaction. All assays were performed in 96-well microtiter plates, Purified GTP-bound Cdc42, Rac1, or RhoA served as a standards to calculate ng active GTPase in the lysates.

Cdc42 = Cdc42 (Homo sapiens, UniProt P60953); test: Fluorescent-GTP binding to Cdc42 (p38 inhibitor control)
Cdc42, sequence (P60953 whole entry, species assumed): as the sequence (P60953 whole entry) above

SMILES	Outcome of primary screening [1]	EC50 (Cdc42 WT) [µM]	Emax (Cdc42 WT) [%]	EC50 (Cdc42 ACT (Cdc42Q61L)) [µM]	Inhibition of Cdc42 GTPase in GLISA [2]	other results
COc1ccc(C2CC(c3ccccc3)=NN2c2ccc(S(N)(=O)=O)cc2)cc1OC (stereo not drawn) [MLS000862339]	specific inhibitors	–	–	–	–	IC50 (wild-type Cdc42): 0.4 µM
Cc1cccc(C2CC(c3ccccc3)=NN2c2ccc(S(N)(=O)=O)cc2)c1 (stereo not drawn) [CID 44143700, 4-[3-(3-methylphenyl)-5-phenyl-3,4-dihydropyrazol-2-yl]benzene sulfonamide]	–	5	55	5.3	significant response	–
O=C(O)c1cccnc1SCCc1ccccc1 [CID888706]	activator	–	–	–	–	–
Cc1ccc(C2CC(c3ccccc3)=NN2c2ccc(S(N)(=O)=O)cc2)cc1 (stereo not drawn) [CID 13927310, 4-[3-(4-methylphenyl)-5-phenyl-3,4-dihydropyrazol-2-yl]benzene sulfonamide]	–	5	66	5	significant response	–
Oc1ccc(-c2nc(-c3ccncc3)c(-c3ccc(F)cc3)[nH]2)cc1 [SB 202190]	–	–	–	–	–	Fluorescent-GTP binding to Cdc42 (Cdc42): did not inhibit
